Like-named read-outs stand apart in the source and are kept apart here.
Tests used:
[1] = Preliminary studies on storage stability of the precursor; assay type: physicochemical; conditions: room temperature
α2β3γ2 human GABAARs = target: T1, α2β3γ2 human GABAARs (Homo sapiens, UniProt P18507+P47869); assay: [^3H]flumazenil in vitro binding assay, α2β3γ2; conditions: read-out: Affinity at human GABAAR subtypes, α2β3γ2 (mean Ki)
T1 construct: expressed in transfected cells; host or cells: mouse fibroblasts, stably expressing; membranes prepared
Description: (§1) These samples were serially diluted in 100% DMSO in half-log units such that when 5 µl were added into a total assay volume of 500 µl, the final DMSO concentration in the assay was 1%.
(§2) In brief, mouse fibroblasts stably expressing the four subtypes of human GABAARs that contain a benzodiazepine binding site (i.e., α1-, α2-, α3- and α5β3γ2) were grown, harvested, and membranes were prepared and frozen at -80 °C until required. On the day of the assay, membranes were thawed and reconstituted in assay buffer (75 mM Tris.Cl, pH 7.4, 1 mM EDTA, 12.5 mM MgCl2) at a concentration of 101 µg/ml for α1β3γ2 and 51 µg/ml for α2-, α3- and α5β3γ2 membrane. […] Incubations were performed for 1 h at room temperature before being terminated by filtration and rapid washing (2 × 10 ml of ice-cold 50 mM Tris.Cl, pH 7.4 buffer) over Whatman GF/B filters using a Brandel cell harvester. Filters were then placed in scintillation vials, 4 ml of scintillation fluid added, and radioactivity was counted on a Tricarb 2900 scintillation counter.

α5β3γ2 human GABAARs = target: T2, α5β3γ2 human GABAARs (Homo sapiens, UniProt P18507+P31644); assay: [^3H]flumazenil in vitro binding assay, α5β3γ2
T2 construct: expressed in transfected cells; host or cells: mouse fibroblasts, stably expressing; membranes prepared
Description: as §1, §2

α3β3γ2 human GABAARs = target: T3, α3β3γ2 human GABAARs (Homo sapiens, UniProt P18507+P34903); assay: [^3H]flumazenil in vitro binding assay, α3β3γ2; conditions: read-out: Affinity at human GABAAR subtypes, α3β3γ2 (mean Ki)
T3 construct: expressed in transfected cells; host or cells: mouse fibroblasts, stably expressing; membranes prepared
Description: as §1, §2

α1β3γ2 human GABAARs = target: T4, α1β3γ2 human GABAARs (Homo sapiens, UniProt P14867+P18507); assay: [^3H]flumazenil in vitro binding assay, α1β3γ2
T4 construct: expressed in transfected cells; host or cells: mouse fibroblasts, stably expressing; membranes prepared
Description: as §1, §2

[2] = mouse fibroblast membranes, 4 nM [^3H]flumazenil, Cheng-Prusoff, mean ± SEM of n = 4 separate assays

T1 sequence (P47869 29-451): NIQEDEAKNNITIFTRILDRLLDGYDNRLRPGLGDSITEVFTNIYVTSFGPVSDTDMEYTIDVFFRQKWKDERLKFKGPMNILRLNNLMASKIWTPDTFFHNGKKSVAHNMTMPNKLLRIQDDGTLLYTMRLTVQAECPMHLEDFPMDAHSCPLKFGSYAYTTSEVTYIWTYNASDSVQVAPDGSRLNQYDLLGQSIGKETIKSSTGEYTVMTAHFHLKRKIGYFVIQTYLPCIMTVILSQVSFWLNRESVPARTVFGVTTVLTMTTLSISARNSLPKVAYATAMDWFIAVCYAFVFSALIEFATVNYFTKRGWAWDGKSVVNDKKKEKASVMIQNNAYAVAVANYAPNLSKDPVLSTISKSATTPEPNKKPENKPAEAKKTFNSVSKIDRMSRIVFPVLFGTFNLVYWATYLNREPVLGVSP
T1 sequence (P28472 26-473 partner): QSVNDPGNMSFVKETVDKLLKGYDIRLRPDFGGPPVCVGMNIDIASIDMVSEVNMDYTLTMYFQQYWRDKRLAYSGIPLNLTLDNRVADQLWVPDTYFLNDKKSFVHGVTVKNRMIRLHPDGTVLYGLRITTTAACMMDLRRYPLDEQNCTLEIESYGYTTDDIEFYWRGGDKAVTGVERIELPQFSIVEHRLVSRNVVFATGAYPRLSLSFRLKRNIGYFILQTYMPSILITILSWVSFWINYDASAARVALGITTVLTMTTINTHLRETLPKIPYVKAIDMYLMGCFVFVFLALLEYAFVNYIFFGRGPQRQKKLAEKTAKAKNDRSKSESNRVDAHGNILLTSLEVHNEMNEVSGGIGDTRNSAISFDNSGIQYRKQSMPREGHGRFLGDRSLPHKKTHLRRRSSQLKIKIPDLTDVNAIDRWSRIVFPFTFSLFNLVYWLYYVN
T1 sequence (P18507 40-475): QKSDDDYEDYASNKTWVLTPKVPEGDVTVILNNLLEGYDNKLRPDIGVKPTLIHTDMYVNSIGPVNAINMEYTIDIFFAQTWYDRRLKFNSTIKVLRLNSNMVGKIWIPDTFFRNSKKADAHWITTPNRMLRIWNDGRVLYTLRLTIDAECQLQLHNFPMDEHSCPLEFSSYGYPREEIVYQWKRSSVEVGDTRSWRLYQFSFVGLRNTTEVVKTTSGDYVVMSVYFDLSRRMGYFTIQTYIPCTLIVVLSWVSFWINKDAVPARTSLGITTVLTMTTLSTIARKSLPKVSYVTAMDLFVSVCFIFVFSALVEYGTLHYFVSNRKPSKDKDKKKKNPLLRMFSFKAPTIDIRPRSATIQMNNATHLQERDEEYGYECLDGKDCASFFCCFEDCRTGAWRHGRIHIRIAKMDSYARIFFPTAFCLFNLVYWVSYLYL
T2 sequence (P31644 32-462): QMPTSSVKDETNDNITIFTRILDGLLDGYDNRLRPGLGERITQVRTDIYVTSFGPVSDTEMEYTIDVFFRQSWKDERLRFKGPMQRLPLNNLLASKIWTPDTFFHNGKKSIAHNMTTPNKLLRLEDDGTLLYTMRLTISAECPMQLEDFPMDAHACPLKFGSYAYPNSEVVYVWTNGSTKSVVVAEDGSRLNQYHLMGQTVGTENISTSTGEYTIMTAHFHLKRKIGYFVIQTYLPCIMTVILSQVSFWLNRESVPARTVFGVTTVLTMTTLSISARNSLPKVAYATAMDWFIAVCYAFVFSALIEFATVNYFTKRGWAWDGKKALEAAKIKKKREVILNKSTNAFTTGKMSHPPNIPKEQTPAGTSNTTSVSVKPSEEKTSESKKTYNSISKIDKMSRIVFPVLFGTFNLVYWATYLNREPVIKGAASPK
T2 sequence (P28472 26-473 partner): as the sequence (P28472 26-473 partner) above
T2 sequence (P18507 40-475): as the sequence (P18507 40-475) above
T4 sequence (P14867 28-456): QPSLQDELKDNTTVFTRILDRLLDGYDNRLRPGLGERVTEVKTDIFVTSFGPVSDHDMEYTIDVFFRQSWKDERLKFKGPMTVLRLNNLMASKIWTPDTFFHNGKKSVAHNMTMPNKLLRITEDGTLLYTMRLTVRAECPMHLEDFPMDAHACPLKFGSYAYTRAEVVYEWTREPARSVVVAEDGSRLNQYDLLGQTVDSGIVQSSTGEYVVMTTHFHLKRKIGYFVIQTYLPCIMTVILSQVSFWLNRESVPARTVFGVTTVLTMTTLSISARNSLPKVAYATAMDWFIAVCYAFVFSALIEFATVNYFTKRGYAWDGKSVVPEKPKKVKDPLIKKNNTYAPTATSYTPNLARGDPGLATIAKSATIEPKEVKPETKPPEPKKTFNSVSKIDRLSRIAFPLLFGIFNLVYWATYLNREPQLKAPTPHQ
T4 sequence (P28472 26-473 partner): as the sequence (P28472 26-473 partner) above
T4 sequence (P18507 40-475): as the sequence (P18507 40-475) above
T3 sequence (P34903 29-492): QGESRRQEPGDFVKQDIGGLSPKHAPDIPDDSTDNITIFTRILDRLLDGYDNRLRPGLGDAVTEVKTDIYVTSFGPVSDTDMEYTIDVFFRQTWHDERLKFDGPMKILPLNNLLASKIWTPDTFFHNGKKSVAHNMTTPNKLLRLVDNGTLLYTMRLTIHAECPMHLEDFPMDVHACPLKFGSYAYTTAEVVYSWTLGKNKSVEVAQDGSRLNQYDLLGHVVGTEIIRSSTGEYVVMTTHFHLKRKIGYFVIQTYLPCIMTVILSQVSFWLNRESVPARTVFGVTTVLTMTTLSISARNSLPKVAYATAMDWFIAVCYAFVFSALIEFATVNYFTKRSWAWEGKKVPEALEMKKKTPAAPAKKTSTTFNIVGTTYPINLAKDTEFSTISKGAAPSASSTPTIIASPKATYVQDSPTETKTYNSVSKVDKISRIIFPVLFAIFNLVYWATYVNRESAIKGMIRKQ
T3 sequence (P28472 26-473 partner): as the sequence (P28472 26-473 partner) above
T3 sequence (P18507 40-475): as the sequence (P18507 40-475) above

With `CCOC(=O)c1ncn2c1CN(C)C(=O)c1cc(B3OC(C)(C)C(C)(C)O3)ccc1-2` [FMZ-BPin, Ethyl 5-methyl-6-oxo-8(4,4,5,5-tetramethyl-1,3,2-dioxaborolan-2-yl)-5,6-dihydro-4H-benzo[f]imidazo[1,5-a][1,4]diazepine-3-carboxylate] the “Stable for prolonged storage” value [1] was over 9 months.

For `CCOC(=O)c1ncn2c1CN(C)C(=O)c1cc(O)ccc1-2` [OHMZ, Flumazenil impurity B], the Ki (α2β3γ2 human GABAARs; [2]) was 7.3 ± 1.5 nM, the Ki (α5β3γ2 human GABAARs; mouse fibroblast membranes, 4 nM [^3H]flumazenil, Cheng-Prusoff, mean ± SEM of n = 4 separate assays, read-out: Affinity at human GABAAR subtypes, α5β3γ2 (mean Ki)) was 0.5 ± 0.1 nM and the Ki (α3β3γ2 human GABAARs; [2]) was 2.7 ± 0.9 nM. For the same compound, the Ki (α1β3γ2 human GABAARs; mouse fibroblast membranes, 4 nM [^3H]flumazenil, Cheng-Prusoff, mean ± SEM of n = 4 separate assays, read-out: Affinity at human GABAAR subtypes, α1β3γ2 (mean Ki)) was 5.4 ± 0.6 nM.

`CCOC(=O)c1ncn2c1CN(C)C(=O)c1ccccc1-2` [HMZ, ethyl 5-methyl-6-oxo-5,6-dihydro-4H-benzo[f]imidazo[1,5-a][1,4]diazepine-3-carboxylate] showed a Ki (α2β3γ2 human GABAARs) of 15 ± 2 nM, a Ki (α5β3γ2 human GABAARs) of 1.7 ± 0.2 nM and a Ki (α3β3γ2 human GABAARs) of 11 ± 4 nM. For the same compound, the Ki (α1β3γ2 human GABAARs) was 24 ± 3 nM.

— paper PMC8934836 (EJNMMI Radiopharmacy and Chemistry, 2022)
